In patent US8871767B2, “2-arylimidazo[1,2-B]pyridazine, 2-phenylimidazo[1,2-A]pyridine, and 2-phenylimidazo[1,2-A]pyrazine derivatives” (Hengrui (USA) Ltd., priority 2010, dated 2014):
Read-outs that look alike come from different tables or passages of the source.

What was measured:
[1] = tested on: Hedgehog pathway activation on 10T1/2/Smo#3 cells (C3H10T1/2 cells transfected with human Smoothened receptor); experiment: Hedgehog pathway activation on 10T1/2/Smo#3 cells measured by ALP activity; assay type: cell-based; settings: Mus musculus, C3H 10T1/2, 10T1/2/Smo#3 cells
Outline: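 C3H10T1/2 cells stably expressing human Smoothened were activated with hShh-conditioned medium (10-20%) or 500 nM SAG, with test compounds present. Pathway block read as inhibited ALP activity (4-methylumbelliferyl phosphate fluorescence); viability checked by CellTiter-Blue. IC50 values reported.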

[2] = tested on: Hedgehog pathway activation (GLi-luciferase reporter) in Shh Light II reporter cells; experiment: Hedgehog pathway activation on Shh Light II reporter cells measured by luciferase activity; assay type: cell-based; settings: Mus musculus, Shh Light II
Outline: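 Shh Light II reporter cells carrying a hedgehog-responsive GLi-luciferase reporter were stimulated either with 500 nM SAG, a direct Smoothened agonist, or with conditioned media containing human Sonic Hedgehog (hShh). Test compounds were evaluated for blocking this pathway activation, quantified by luciferase activity. Cell viability was monitored in parallel with the Celltiter-Blue® assay.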

[3] = hShh activation, ALP activity, read-out: 10T1/2/Smo#3 ALP activity (hShh Activation)
[4] = measured by ALP activity, read-out: ALP (IC50, inhibition of Hedgehog pathway activation)
[5] = SAG activation (500 nM SAG), read-out: Shh Light II luciferase activity (SAG activation)
[6] = hShh activation, read-out: Shh (IC50, inhibition of Hedgehog pathway activation)
[7] = hShh activation, read-out: Shh Light II luciferase activity (hShh activation)

| Compound | IC50 [1, 3] [nM] | IC50 [1, 4] [nM] | IC50 [2, 5] [nM] | IC50 [2, 6] [nM] | IC50 [2, 7] [nM] |
| --- | --- | --- | --- | --- | --- |
| Cc1c(-c2ccccc2)nc2ccc(N3CCN(Cc4ccccn4)CC3)nn12 [Example 160, 3-methyl-2-phenyl-6-(4-(pyridin-2-ylmethyl)piperazin-1-yl)imidazo[1,2-b]pyridazine] |  | 627 |  | 2510 |  |
| COc1ccccc1-c1ccc2nc(-c3ccc(C(F)(F)F)c(NC(=O)C(C)(C)C)c3)cn2n1 [Example 172, N-(5-(6-(2-methoxyphenyl)imidazo[1,2-b]pyridazin-2-yl)-2-(trifluoromethyl)phenyl)pivalamide] |  | 403 |  | 936 |  |
| Cc1ccc(-c2cn3nc(-c4c(F)cccc4C(F)(F)F)ccc3n2)cc1NC(=O)C(C)(C)C [Example 397, N-(5-(6-(2-fluoro-6-(trifluoromethyl)phenyl)imidazo[1,2-b]pyridazin-2-yl)-2-methylphenyl)pivalamide] | < 300 | 315 | < 300 | 73 | < 300 |
| CC(O)COc1ccc2nc(-c3ccc(C(F)(F)F)c(NC(=O)C(C)(C)C)c3)cn2n1 (stereo not shown) [Example 376, N-(5-(6-(2-hydroxypropoxy)imidazo[1,2-b]pyridazin-2-yl)-2-(trifluoromethyl)phenyl)pivalamide] |  | 874 |  | 616 |  |
| COCCN(CCOC)c1ccc2nc(-c3ccc(C(F)(F)F)c(NC(=O)C(C)(C)C)c3)cn2n1 [Example 380, N-(5-(6-(bis(2-methoxyethyl)amino)imidazo[1,2-b]pyridazin-2-yl)-2-(trifluoromethyl)phenyl)pivalamide] |  | 383 |  | 273 |  |
| CCOc1ccc2nc(-c3ccc(C(F)(F)F)c(NC(=O)C4CCCC4)c3)cn2n1 [Example 189, N-(5-(6-ethoxyimidazo[1,2-b]pyridazin-2-yl)-2-(trifluoromethyl)phenyl)cyclopentanecarboxamide] |  | 2100 |  | 2000 |  |
| COc1ccc2nc(-c3cc(NC(=O)C(C)(C)C)c(C)cc3C)cn2n1 [Example 106, N-(5-(6-methoxyimidazo[1,2-b]pyridazin-2-yl)-2,4-dimethylphenyl)pivalamide] | 300 to 3000 | 2500 | 300 to 3000 | 774 | 300 to 3000 |
| Cc1c(-c2ccccc2)nc2ccc(N3CCN(C(=O)OC(C)(C)C)CC3)nn12 [Example 158, tert-butyl 4-(3-methyl-2-phenylimidazo[1,2-b]pyridazin-6-yl)piperazine-1-carboxylate] | 3000 to 30000 | 7340 | 300 to 3000 | 847 | 3000 to 30000 |
| CC(C)(C)C(=O)Nc1cc(-c2cn3nc(Oc4ccccc4F)ccc3n2)ccc1C(F)(F)F [Example 195, N-(5-(6-(2-fluorophenoxy)imidazo[1,2-b]pyridazin-2-yl)-2-(trifluoromethyl)phenyl)pivalamide] |  | 718 |  | 267 |  |
| CCOC(=O)Nc1cc(-c2cn3nc(-c4cccnc4C(F)(F)F)ccc3n2)ccc1Cl [Example 673, ethyl 2-chloro-5-(6-(2-(trifluoromethyl)pyridin-3-yl)imidazo[1,2-b]pyridazin-2-yl)phenylcarbamate] |  | 678 |  | 169 |  |
| CC(C)(C)C(=O)Nc1cc(-c2cn3nc(-c4cccc(F)c4)ccc3n2)ccc1C(F)(F)F [Example 222, N-(5-(6-(3-fluorophenyl)imidazo[1,2-b]pyridazin-2-yl)-2-(trifluoromethyl)phenyl)pivalamide] |  | 425 |  | 156 |  |
| CCN(CC)S(=O)(=O)c1cc(-c2cn3nc(-c4cccnc4C(F)(F)F)ccc3n2)ccc1Cl [Example 703, 2-chloro-N,N-diethyl-5-(6-(2-(trifluoromethyl)pyridin-3-yl)imidazo[1,2-b]pyridazin-2-yl)benzenesulfonamide] |  | > 10000 |  | 1600 |  |
| CC(C)(C)C(=O)Nc1cc(-c2cn3nc(-c4ccc[nH]4)ccc3n2)ccc1C(F)(F)F [Example 179, N-(5-(6-(1H-pyrrol-2-yl)imidazo[1,2-b]pyridazin-2-yl)-2-(trifluoromethyl)phenyl)pivalamide] |  | 1440 |  | 454 |  |
| CC(C)(C)C(=O)Nc1cc(-c2cn3nc(C4CCCC4)ccc3n2)ccc1C(F)(F)F [Example 133, N-(5-(6-cyclopentylimidazo[1,2-b]pyridazin-2-yl)-2-(trifluoromethyl)phenyl)pivalamide] |  | 849 |  | 487 |  |
| CCOc1ccc2nc(-c3ccc(C(F)(F)F)c(NC(=O)C(C)(C)C(F)(F)F)c3)cn2n1 [Example 188, N-(5-(6-ethoxyimidazo[1,2-b]pyridazin-2-yl)-2-(trifluoromethyl)phenyl)-3,3,3-trifluoro-2,2-dimethylpropanamide] |  | 875 |  | 1400 |  |
| Cc1ccc(-c2cn3nc(-c4ccc(NC(=O)CCCCC(=O)NO)cc4C(F)(F)F)ccc3n2)cc1NC(=O)C(C)(C)C [compound 531] |  | 1140 |  | 586 |  |
| CC(C)(C)C(=O)Nc1cc(-c2cn3nc(OC4CCC(O)CC4)ccc3n2)ccc1C(F)(F)F (stereo not shown) [Example 375, N-(5-(6-(4-hydroxycyclohexyloxy)imidazo[1,2-b]pyridazin-2-yl)-2-(trifluoromethyl)phenyl)pivalamide] |  | 372 |  | 316 |  |

Continued, values first:

| IC50 [1, 3] [nM] | IC50 [1, 4] [nM] | IC50 [2, 5] [nM] | IC50 [2, 6] [nM] | IC50 [2, 7] [nM] | Compound |
| --- | --- | --- | --- | --- | --- |
| < 300 | 114 | 300 to 3000 | 72 | < 300 | Cc1ccc(-c2cn3nc(-c4cccnc4C(F)(F)F)ccc3n2)cc1C(=O)NC(C)(C)C [Example 483, N-tert-butyl-2-methyl-5-(6-(2-(trifluoromethyl)pyridin-3-yl)imidazo[1,2-b]pyridazin-2-yl)benzamide] |
|  | 159 |  | 110 |  | CCN[C@@H]1CCN(c2ccc3nc(-c4ccc(C(F)(F)F)c(NC(=O)C(C)(C)C)c4)cn3n2)C1 [Example 635, (R)—N-(5-(6-(3-(ethylamino)pyrrolidin-1-yl)imidazo[1,2-b]pyridazin-2-yl)-2-(trifluoromethyl)phenyl)pivalamide] |
|  | 90 |  | 284 |  | CC(=O)Nc1ccccc1-c1ccc2nc(-c3ccc(C)c(NC(=O)C(C)(C)C)c3)cn2n1 [Example 289, N-(5-(6-(2-acetamidophenyl)imidazo[1,2-b]pyridazin-2-yl)-2-methylphenyl)pivalamide] |
|  | 312 |  | 869 |  | CCOC(=O)CCCCCOc1cccc(-c2ccc3nc(-c4ccc(C)c(NC(=O)C(C)(C)C)c4)cn3n2)c1C(F)(F)F [Example 422, ethyl 6-(3-(2-(4-methyl-3-pivalamidophenyl)imidazo[1,2-b]pyridazin-6-yl)-2-(trifluoromethyl)phenoxy)hexanoate] |
|  | 111 |  | 337 |  | Cc1c(-c2cccnc2F)nn2cc(-c3ccc(C(F)(F)F)c(NC(=O)C(C)(C)C)c3)nc2c1C [Example 199, N-(5-(6-(2-fluoropyridin-3-yl)-7,8-dimethylimidazo[1,2-b]pyridazin-2-yl)-2-(trifluoromethyl)phenyl)pivalamide] |
| < 300 | 62 | < 300 | 30 | < 300 | Cc1ccc(-c2cn3nc(NC(=O)c4cccc(C=CC(=O)NO)c4)ccc3n2)cc1NC(=O)C(C)(C)C [compound 605] |
| < 300 | 145 | 300 to 3000 | 198 | < 300 | Cc1ccc(-c2cn3nc(-c4cccnc4C(F)(F)F)ccc3n2)cc1NC(=O)c1cccc(C=CC(=O)Nc2ccccc2N)c1 [compound 623, 3-(3-((2-aminophenyl)amino)-3-oxoprop-1-en-1-yl)-N-(2-methyl-5-(6-(2-(trifluoromethyl)pyridin-3-yl)imidazo[1,2-b]pyridazin-2-yl)phenyl)benzamide] |
|  | 15 |  | 72 |  | CC(C)(C)C(=O)Nc1cc(-c2cn3nc(-c4cccnc4C(F)(F)F)ccc3n2)ccc1C1CC1 [Example 644, N-(2-cyclopropyl-5-(6-(2-(trifluoromethyl)pyridin-3-yl)imidazo[1,2-b]pyridazin-2-yl)phenyl)pivalamide] |
| < 300 | 110 | 300 to 3000 | 92 | < 300 | Cc1ccc(-c2cn3nc(-c4ccc(C(N)=O)cc4C(F)(F)F)ccc3n2)cc1NC(=O)C(C)(C)C [compound 508] |
|  | 127 |  | 193 |  | Cc1ccc(-c2cn3nc(N4CCC(O)CC4)ccc3n2)cc1NC(=O)C(C)(C)C [Example 286, N-(5-(6-(4-hydroxypiperidin-1-yl)imidazo[1,2-b]pyridazin-2-yl)-2-methylphenyl)pivalamide] |
|  | 240 |  | 142 |  | CC(C)(C)C(=O)Nc1cc(-c2cn3nc(N4CCSCC4)ccc3n2)ccc1C(F)(F)F [Example 355, N-(5-(6-thiomorpholinoimidazo[1,2-b]pyridazin-2-yl)-2-(trifluoromethyl)phenyl)pivalamide] |
|  | 176 |  | 27 |  | CCOC(=O)CCCCOc1ccc(-c2ccc3nc(-c4ccc(C)c(NC(=O)C(C)(C)C)c4)cn3n2)c(C(F)(F)F)c1 [Example 427, ethyl 5-(4-(2-(4-methyl-3-pivalamidophenyl)imidazo[1,2-b]pyridazin-6-yl)-3-(trifluoromethyl)phenoxy)pentanoate] |
